Legend:
tubulin [1] = conditions: in words, shown previously; cited from earlier work
tubulin [2] = experiment: radiolabeled GTP binding to tubulin (nucleotide exchange)
[3] = test system: L1210 murine leukemia cells; experiment: mitotic index at cytotoxic concentrations; format: cell-based; conditions: in words
[4] = test system: L1210 murine leukemia cells; experiment: cytotoxicity in L1210 leukemia cells; format: cell-based
[5] = test system: human tumor cell line panel; experiment: NCI in vitro primary screen, pattern of differential growth inhibition / mean graph comparison; format: cell-based; conditions: computerized pattern-recognition analyses
Excerpt: Only two hundred years ago, many diseases ravaged humankind. Many of these diseases have been controlled or eradicated. In the development of the means to treat or control these diseases, work with the appropriate common experimental animals is of critical importance. With the various types of cancers, and with the HIV virus, such work is presently ongoing. The research for the treatment of various types of cancer is coordinated in the United States by the National Cancer Institute (NCI). NCI, as a government entity, has been charged with assisting all anti-cancer research. To establish whether a substance has anti-cancer activity, NCI has established a variety of protocols one of which involves testing the candidate substance against a cell line panel containing 60 human tumor cell lines. This protocol has been verified, and is generally accepted throughout the scientific community. This protocol and the established statistical means of evaluating the results obtained therefrom have been fully described in the literature See Principles & Practice of Oncology PPO Updates, Volume 3, Number 10, October 1989, by Michael R. Boyd, M.D., Ph.D. for an in depth description of the test protocol. […]

tubulin [6] = experiment: binding of radiolabeled vinblastine to tubulin
tubulin [7] = conditions: in words, shown previously; cited from earlier work; remark: listed apart in the source

SMILES | mode of inhibition of vinblastine binding to tubulin (tubulin [1]) | inhibition of radiolabeled GTP binding to tubulin (tubulin [2]; 5 μM) [%] | inhibition of radiolabeled GTP binding to tubulin (tubulin [2]; 10 μM) [%] | rise in the mitotic index [3] | IC50 [4] [nM] | correlation of mean graph profiles [5] | inhibition of binding of radiolabeled vinblastine (tubulin [6]; 5 μM) [%] | inhibition of binding of radiolabeled vinblastine (tubulin [6]; 10 μM) [%] | inhibition of nucleotide exchange on tubulin (tubulin [7])
C=C1C[C@@H]2CC[C@@]34C[C@H]5O[C@H]6[C@@H](O3)[C@H]3O[C@H](CC[C@@H]3O[C@H]6[C@H]5O4)CC(=O)O[C@@H]3[C@@H](C)[C@@H]4O[C@@H]5C[C@]6(C[C@@H]7O[C@]8(C[C@H](C)[C@@H]9O[C@H]([C@@H](O)C[C@@H](O)CO)C[C@@H]9O8)C[C@H](C)[C@@H]7O6)O[C@@H]5C[C@@H]4O[C@H]3C[C@H]3O[C@@H](CC[C@@H]1O2)C[C@@H](C)C3=C [halichondrin B] | noncompetitive inhibitor of the binding of radiolabeled vinblastine to tubulin | 14 | 18 | caused a significant rise in the mitotic index | 0.2 | strongly correlated with each other and also with the profiles of a general class of tubulin-interactive antimitotics | 51 | 73 | inhibit nucleotide exchange on tubulin
C=C1C[C@@H]2CC[C@@]34C[C@H]5O[C@H]6[C@@H](O3)[C@H]3O[C@H](CC[C@@H]3O[C@H]6[C@H]5O4)CC(=O)O[C@@H]3[C@@H](C)[C@@H]4O[C@@H]5C[C@]6(C[C@@H]7O[C@]8(C[C@H](C)[C@@H]9O[C@@H]%10CC(C(O)CO)O[C@@H]%10C[C@@H]9O8)C[C@H](C)[C@@H]7O6)O[C@@H]5C[C@@H]4O[C@H]3C[C@H]3O[C@@H](CC[C@@H]1O2)C[C@@H](C)C3=C (stereo partly shown) [homohalichondrin B] | – | – | – | – | – | strongly correlated with each other and also with the profiles of a general class of tubulin-interactive antimitotics | – | – | –

— US5426194A, “Isolation and structure of Halistatin 1” (Arizona Board of Regents, a body corporate acting on behalf …, priority 1993, dated 1995)
